Measured values reported in patent US20240166690A1, “MULTI-TARGET CY[…] FOR OPIOID/NEUROPEPTIDE FF RECEPTORS, AND PREPARATION THEREFOR AND APPLICATION THEREOF” (SHANGHAI TIANCI LIFE SCIENCE DEVELOPMENT CO., LTD., priority 2021, published 2024).
Bridge positions count the residues as written; N and C are the ends. Square brackets hold non-standard residues; d marks the D form. Peptide text beside a SMILES is read from it. NMeF = CN[C@@H](Cc1ccccc1)C(=O)O; dOrn = NCCC[C@@H](N)C(=O)O

How the values were obtained:
male mice = assay: Conditioned place preference experiment (CPP); assay type: in vivo; conditions: 10000 μg/kg orally
Method: Conditioned place preference experiment (CPP) was conducted in a device consisting of three organic glass boxes, wherein two large boxes (20×20×20 cm) on either side separated by a small box (5×20×20 cm) in the middle. A small door of 5×5 was at the bottom of two large boxes for mice to enter and exit, and the doors can be closed. A box on one side was white, with a rough wire mesh as the bottom and a light intensity of 50 lux. A box on other side was black, with a smooth bottom and a light intensity of 20 lux. 25±5 g male mice were selected for the experiment, the room temperature was 22±1° C. On the first day of the experiment, the mice were first screened, allowing them to shuttle freely between two boxes for 15 minutes. The time the mice stayed in one box was recorded, and mice that stayed for more than 9 minutes were removed. Mice without preference/aversion were selected. […] On the 5th day, CPP performance was measured. As on the first day, the time stay in each box was measured for the mice after administration with the duration of 15 minutes. The inter group differences between different drug treatments in the CPP experiment and the differences in the number of jumps in the naloxone withdrawal experiment was statistically analyzed using paired t-tests. *P<0.05, **P<0.01, and ***P<0.001 indicated significance of differences between the drug treatment group and the saline group.

Kappa-opioid receptor = biological target: T1, Kappa-opioid receptor (Homo sapiens, UniProt P41145); assay: cAMP functional experiment, Kappa-opioid receptor (forskolin-induced cAMP accumulation); assay type: cell-based
T1 construct: expressed in transfected cells; host or cells: HEK293
T1 sequence (P41145 whole entry): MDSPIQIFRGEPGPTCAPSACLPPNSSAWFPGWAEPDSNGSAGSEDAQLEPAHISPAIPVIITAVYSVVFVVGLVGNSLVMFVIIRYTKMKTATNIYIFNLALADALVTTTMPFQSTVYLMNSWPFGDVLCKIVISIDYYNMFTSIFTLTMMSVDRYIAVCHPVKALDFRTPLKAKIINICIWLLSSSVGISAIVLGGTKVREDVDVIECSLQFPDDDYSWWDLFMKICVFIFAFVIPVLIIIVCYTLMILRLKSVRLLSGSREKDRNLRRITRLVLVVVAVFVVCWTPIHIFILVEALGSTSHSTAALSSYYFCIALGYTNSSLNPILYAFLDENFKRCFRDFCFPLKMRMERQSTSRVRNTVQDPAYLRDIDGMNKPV
Method: The agonistic activity of the cyclopeptide molecule of the present invention against Mu-opioid receptor, Delta-opioid receptor, Kappa-opioid receptor, NPFF1 receptor and NPFF2 receptor was evaluated by detecting the regulation of the cyclopeptide molecule of the present invention on the intracellular accumulation of cyclic adenosine monophosphate (cAMP) induced by Forskolin in HEK293 cells stably expressing these five receptors. The experimental method was: the cells were seeded in 24 well plates with 120000 cells per well, and were cultured for more than 20 hours. At the beginning of the experiment, the culture medium in the culture dish was suck out, and then 500 μL of preheated serum-free medium containing 1 mM of IBMX was added, the mixture was incubated at 37° C. for 10 minutes. Then each 10 μL of the drug to be tested and 10 μM of forskolin (final concentration) were added to each well. The mixture was incubated at 37° C. for 30 minutes. After incubation, all the liquid was suck out from the culture dish, 500 μL of 0.2 N hydrochloric acid was added to each well, the mixture was incubated at room temperature for 30 minutes to promote cell lysis. After lysis was complete, NaOH was added to neutralize the hydrochloric acid solution used for lysis. Then all the liquid was suck out from the culture dish into centrifuge tubes, the liquid was centrifuged at 12000 rpm for 2 minutes. 50 μL was taken to a clean centrifuge tube, 100 μL of 60 μg/μL PKA was added, and 100 μL of TE cAMP buffer was added to the blank control group (B). Another 50 μL of 0.5 μ Ci[^3H]cAMP was added to each of the above centrifuge tubes, the mixture was quickly mixed and incubated at 4° C. for more than 2 hours. After incubation, another 100 μL of activated carbon suspension was added to each tube, the mixture was vortex agitated evenly, placed in an ice bath for 1 minute, centrifuged at 5000 rpm for 4 minutes. 200 μL of supernatant after centrifugation in each tube was suck out to a 24 well plate, with an additional 700 μL of scintillator liquid added per well, then the 24 well plate was sealed with adhesive film, placed for 3 hours, then placed on the scintillation instrument for measurement.
The inhibitory effect of cAMP was represented by the percentage (% control) of drug inhibition of intracellular cAMP accumulation induced by Forskolin, wherein % control=(cAMP content when treated with Forskolin−cAMP content when Forskolin co-treated with the test drug)/(cAMP content when treated with Forskolin−cAMP content when treated with solvent). The related % control data was represented by mean±S.E.M. The dose-effect relationship of the drug was statistically analyzed using a nonlinear regression model, and the IC50 values of the multi-target cyclopeptide molecule on inhibition of Forskolin induced intracellular cAMP accumulation were calculated using the statistical software GraphPad Prism version 5.0.

Kunming male mice = assay: Photothermal tail flick experiment, oral administration; assay type: in vivo; conditions: for Maximum analgesic time: oral administration at the maximum analgesic dose; for Maximum analgesic time / analgesic duration: tail flick; for ED50 value (95% confidence interval), oral analgesic activity / analgesic duration: oral administration; for ED50 value (95% confidence interval), oral analgesic activity: photothermal tail flick
Method: Two administration methods were used: peripheral subcutaneous administration and oral administration. Subsequently, the analgesic activity of the drug was studied using an acute pain model of photothermal tail flick in mice.
1 mL sterile syringe was used for oral administration (p.o.), the pinhead was replaced with a mouse gastric lavage needle, and […] of the drug was orally administered. The skin on the neck and back of the mouse was grasped with the left hand with the abdomen facing upwards. Noted that the mouse's entire body was fixed to vertical, which was beneficial for oral gavage. A gastric lavage needle (No. 12 needle and 1 mL syringe) was held in the right hand and was inserted to the esophagus along the upper jaw which is pressed the tongue tightly from the corner of the mouse's mouth. Gastric lavage fluid can be injected when the needle inserted 2.5 cm. The inserting length of the needle should be determined through practice in advance, as there is a sense of falling into a hole after the needle is inserted. If the injection position was appropriate, it should be very smooth. […] This can cause immediate death of the mouse after gavage.
The photothermal tail flick experiment is based on the experimental method summarized by D'Amour and Smith to optimize the experimental parameters. The experiment selected Kunming male mice with body weigh 21±2 g, and ambient temperature controlled at 22±2° C. The experimental mice were allowed to drink water freely and were moved from the breeding room to the experimental area for adaptation for 30 minutes before starting the experiment. Then the mice were grab with the right hand and the tail hang freely. Then the mice's tail were placed on a radiation light source, 2-3 mm away from the mice tail. The intensity of radiation heat was adjusted to the tail flick time of mice being 3-5 s, which is the basic pain threshold of photothermal tail flick. The irradiation time of the mice tail should not exceed 10 s to prevent scalding of the mice tail, which was the maximum latency for photothermal tail flick. After administration, time points of 10, 20, 30, 45, 60, 90, 120, 180, 240, 300, 360, and 420 minutes were selected to measure the tail flick latency of mice after administration.
The analgesic effect of drugs was generally evaluated using the maximum analgesic effect MPE (%), MPE (%)=100×[(pain threshold after administration−basic pain threshold)/(10 seconds−basic pain threshold)]. 50% effective dose (ED50) refers to the corresponding drug dose that causes a 50% effect. ED50 and 95% confidence interval were calculated using MPE (%) and the drug concentration that achieves the maximum analgesic effect MPE (%) by the statistical software GraphPad Prism 5.0. The difference in analgesic effects was statistically analyzed using one-way ANOVA (Dunnett test), *P<0.05, **P<0.01, and ***P<0.001 indicated significance of the difference between the group with only drug injected and the saline group.

Row | Compound | conditioned place preference (male mice) | IC50 (Kappa-opioid receptor) | Maximum analgesic time (Kunming male mice) | ED50 value (95% confidence interval), oral analgesic activity (Kunming male mice) | analgesic duration (Kunming male mice)
1 | CN1C(=O)CNC(=O)[C@H](NC(=O)[C@@H](N)Cc2ccc(O)cc2)CCCCNC(=O)C[C@@H](C(=O)N2CCC[C@H]2C(=O)N[C@@H](CCC(N)=O)C(=O)N[C@@H](CCCNC(=N)N)C(=O)N[C@@H](Cc2ccccc2)C(N)=O)NC(=O)[C@@H]1Cc1ccccc1 [Compound 1, Tyr-c[D-Lys-Gly-NMe-Phe-Asp]-Pro-Gln-Arg-Phe-NH2] (H-Y[dK]G[NMeF]DPQRF-NH2; lactam 2-5) | no phenomenon of conditioned place preference | 0.039 µM | 30 min | 1.37 µg/kg | 240 min
2 | CN1C(=O)CNC(=O)[C@H](NC(=O)[C@@H](N)Cc2ccc(O)cc2)CCCNC(=O)CC[C@@H](C(=O)N2CCC[C@H]2C(=O)N[C@@H](CCC(N)=O)C(=O)N[C@@H](CCCNC(=N)N)C(=O)N[C@@H](Cc2ccccc2)C(N)=O)NC(=O)[C@@H]1Cc1ccccc1 [Compound 11, Tyr-c^[2,5][D-Orn-Gly-NMe-Phe-Glu]-Pro-Gln-Arg-Phe-NH2] (H-Y[dOrn]G[NMeF]EPQRF-NH2; lactam 2-5) | no phenomenon of conditioned place preference | 0.109 µM | 20 min | 0.14 µg/kg | 240 min
